Assay results published in US9097673B2, “Processes and kits for determining multi-drug resistance of cells” (ENZO LIFE SCIENCES, INC., priority 2010, dated 2015).

What was measured:
CHO K1 cell line [1] = test: Dye efflux flow cytometry MDR assay; type: cell-based, hamster; design: key to D-value, Verapamil / D-value, Novobiocin: KS D value, 0 to 1; negative if control brighter than sample; settings: for D-value, +4° C.: kept on ice without inhibitor
Source text: (§1) Kolmogorov-Smirnov statistics measures the difference between two distribution functions and generates a D value ranging between 0 and 1.0, with higher values indicating a greater difference between the distribution functions. The D value generated by the KS statistics was modified by ascribing a negative value if the fluorescence of a negative control (no inhibitor) was brighter than the fluorescence of the sample with inhibitor. The method was one of those recommended by the First International MDR1 Methods Detection Workshop (St. Jude Children's Research Hospital, Memphis, Tenn.).
(§2) Cells were grown in tissue culture dishes and on the day of assay they were trypsinized and washed twice with ice-cold PBS. Post-wash, the cells were re-suspended in cold phenol red indicator-free medium at a density of 1×10^6/ml. For each detection set, eighteen tubes (6 tubes without inhibitor and 3 tubes for each inhibitor tested, in triplicates) each containing 2.5-5×10^5/cells were prepared. Cells were centrifuged at 200×g for 5 min, and after discarding supernatant, re-suspended at 1×10^6/ml in ice-cold indicator-free medium containing Fluo-8™ AM or Rhod-4™ AM probes. Additionally, an aliquot of non-stained cells was prepared for background fluorescence measurements. Cells were incubated with the probe(s) on ice for 60 min, than centrifuged at 200×g for 5 min. After discarding the supernatant, cells were either washed twice with PBS or simply were spun down to remove the excess of the probe and resuspended at 5×10^5 cells/sample in 0.5 ml of following solutions:
(§3) 1. warm (37° C.) indicator-free medium containing vehicle only (3 tubes)
(§4) 2. warm (37° C.) indicator-free medium containing inhibitor (3 tubes for each inhibitor tested)
(§5) 3. ice-cold indicator-free medium (3 tubes)
(§6) Tube sets 1 and 2 were immediately transferred to a water bath (37° C.) and incubated for 90 min. Tube set 3 was kept on ice. Post incubation, 4 ml of ice-cold indicator-free medium was added per tube, tubes were centrifuged at 200×g for 5 min, supernatant was discarded, and cell pellet was re-suspended in the cold indicator-free medium and centrifuged again. Finally, cells were re-suspended in 0.5 ml of cold indicator-free medium and maintained on ice until analysis. Alternatively, cells were analyzed without washing. Flow cytometry experiments were performed as described in Example 3.

CHO K1 cell line [2] = test: Dye uptake flow cytometry MDR assay; type: cell-based, hamster; settings: for D-values, Cyclosporin A / D-values, Novobiocin / D-values, Probenecid / D-values, Verapamil / MAF, Cyclosporin A / MAF, Novobiocin / MAF, Probenecid / MAF, Verapamil: Fluo-8 AM probe, dye uptake;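 for all read-outs here: flow cytometry of dye-loaded cells, Kolmogorov-Smirnov D value (0 to 1.0) comparing fluorescence with versus without inhibitor, made negative when the uninhibited control was brighter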
Procedure: Concentrations of the modulators used in the experiments were non-toxic to the cells (based upon standard 3-(4,5-Dimethylthiazol-2-Yl)-2,5-Diphenyltetrazolium Bromide (MTT) testing, data not shown). Fluo-8™ was used in all experiments at 5 μM, and Rhod-4™—at 4 μM final concentrations.
Cells were grown on tissue culture dishes and on the day of assay were trypsinized and washed twice with warm (37° C.) phosphate-buffered saline (PBS). Post-wash, the cells were re-suspended in warm phenol red indicator-free medium at a density of 1×10^6/ml. For each detection set, sixteen tubes (5 samples in triplicates plus non-stained control for background fluorescence) in numbered tubes each containing 5×10^5/cells (0.5 ml) were prepared. […] After incubation for 5 min at 37° C., 0.25 ml of warm medium with Fluo-8™ AM probe (5 μM final concentration) or Rhod-4™ AM probe (2 μM final concentration) was added to each tube excluding non-stained control that receives plain medium and cells were incubated for 30 min at 37° C. and analyzed immediately by flow cytometry. In the second set of the tubes, the reaction was stopped by rapid centrifugation (1 min) at relatively low speed (200×g). After wash with ice-cold PBS and discarding the supernatant, cells were re-suspended in 0.5 ml of ice-cold medium and kept on ice until flow cytometry analysis. The third set of cells simply was spun down (1 min, 200×g) to remove the excess of the probe, resuspended in ice-cold medium and kept on ice until flow cytometry analysis.
Fluo-8™ dye fluorescence was measured in the FL1 channel, and Rhod-4™ dye fluorescence—in the FL2 channel.

[3] = system: CHO K1, A549 and HeLa cells; test: MTT test of dye toxicity; type: cell-based; settings: 5 μM Fluo-8 AM, 3 h at 37° C.
Procedure: Three model cell lines (CHO K1, A549 and HeLa cells) were seeded in 96 well plates (5×10^3 cells/well) and 24 h later were treated with the working concentrations of dyes (0.5 μM of Calcein AM, 5 μM of Fluo-8™ AM, 4 μM of Rhod-4™ AM) used in the MDR assay for 3 h at 37° C. Then reagents were removed and a standard MTT test was performed as described elsewhere [Mosmann T., J Immunol Methods 65(1-2):55-63 (1983)]. Viability was calculated as a ratio of OD595 for treated cells to the OD595 of untreated control cells (FIG. 4). […] Additionally, the concentration of Rhod-4™ AM can be decreased further for particularly sensitive cell lines.

HeLa cell line = test: Dye efflux flow cytometry MDR assay; type: cell-based, human; design: key to D-value, Verapamil / D-value, Novobiocin: KS D value, 0 to 1; negative if control brighter than sample; settings: for D-value, +4° C.: kept on ice without inhibitor
Source text: as §1, §2, §3, §4, §5, §6

A549 cell line = test: Dye efflux flow cytometry MDR assay; type: cell-based, human; design: key to D-value, Verapamil / D-value, Novobiocin: KS D value, 0 to 1; negative if control brighter than sample; settings: for D-value, +4° C.: kept on ice without inhibitor
Source text: as §1, §2, §3, §4, §5, §6

[4] = CHO K1, dye efflux, representative experiment (Table 9)
[5] = Fluo-8 AM probe, dye efflux, CHO K1, No Wash
[6] = Fluo-8 AM probe, dye efflux, CHO K1, Wash
[7] = CHO K1, dual probes Fluo-8 AM (FL1) + Pheophorbide A (FL3)
[8] = CHO K1, dye uptake, average of three independent experiments (Table 10)
[9] = CHO K1, dye uptake, average of three representative experiments (Table 6)
[10] = CHO K1, dye uptake, representative experiment (Table 8)
[11] = representative experiment (Table 9)
[12] = A549, dye efflux, representative experiment (Table 9)
[13] = Fluo-8 AM probe, dye efflux, A549, No Wash
[14] = Fluo-8 AM probe, dye efflux, A549, Wash

CC(=O)OCOC(=O)CN(CC(=O)OCOC(C)=O)c1ccccc1OCCOc1cc(-c2c3ccc(=O)cc-3oc3cc(OCOC(C)=O)ccc23)ccc1N(CC(=O)OCOC(C)=O)CC(=O)OCOC(C)=O [Fluo-8 ™ AM]
D-value, 4° C. (CHO K1 cell line [1]; CHO K1, dye efflux, kept on ice without inhibitor (Table 9)): 0.72
D-value, Cyclosporine A (CHO K1 cell line [1]; [4]): 0.55
D-value, Novobiocin (CHO K1 cell line [1]; [4]): 0.70
D-value, Probenecid (CHO K1 cell line [1]; [4]): 0.30
D-value, Verapamil (CHO K1 cell line [1]; [4]): 0.28
D-value, Cyclosporin A (CHO K1 cell line [1]; [5]): 0.8
D-value, Novobiocin (CHO K1 cell line [1]; [5]): 0.7
D-value, Probenecid (CHO K1 cell line [1]; [5]): 0.19
D-value, Verapamil (CHO K1 cell line [1]; [5]): 0.21
D-value, +4° C. (CHO K1 cell line [1]; [5]): 0.78
D-value, Cyclosporin A (CHO K1 cell line [1]; [6]): 0.62
D-value, Novobiocin (CHO K1 cell line [1]; [6]): 0.79
D-value, Probenecid (CHO K1 cell line [1]; [6]): 0.23
D-value, Verapamil (CHO K1 cell line [1]; [6]): 0.34
D-value, +4° C. (CHO K1 cell line [1]; [6]): 0.76
D-values Post Inhibitor Treatment (compared to uninhibited cells), CsA (CHO K1 cell line [2]; [7]): 0.94
D-values Post Inhibitor Treatment (compared to uninhibited cells), FTC (CHO K1 cell line [2]; [7]): 0.56
D-values Post Inhibitor Treatment (compared to uninhibited cells), MK-571 (CHO K1 cell line [2]; [7]): 0.98
D-values Post Inhibitor Treatment (compared to uninhibited cells), Verapamil (CHO K1 cell line [2]; [7]): 0.9
D-value, Cyclosporine A (CHO K1 cell line [2]; [8]): 0.89
D-value, FTC (CHO K1 cell line [2]; [8]): 0.28
D-value, MK-571 (CHO K1 cell line [2]; [8]): 0.95
D-value, Novobiocin (CHO K1 cell line [2]; [8]): 0.68
D-value, Verapamil (CHO K1 cell line [2]; [8]): 0.74
D-value, Fumitremorgan C (CHO K1 cell line [2]; [9]): 0.48
D-value, Probenecid (CHO K1 cell line [2]; [9]): 0.69
D-value, Verapamil (CHO K1 cell line [2]; [9]): 0.84
D-value, Cyclosporine A (CHO K1 cell line [2]; [10]): 0.96
D-value, Novobiocin (CHO K1 cell line [2]; [10]): 0.78
D-value, Probenecid (CHO K1 cell line [2]; [10]): 0.89
D-value, Verapamil (CHO K1 cell line [2]; [10]): 0.83
D-values, Cyclosporin A (CHO K1 cell line [2]; No Wash): 0.97
D-values, Novobiocin (CHO K1 cell line [2]; No Wash): 0.98
D-values, Probenecid (CHO K1 cell line [2]; No Wash): 0.9
D-values, Verapamil (CHO K1 cell line [2]; No Wash): 0.81
MAF, Cyclosporin A (CHO K1 cell line [2]; No Wash): 93.0
MAF, Novobiocin (CHO K1 cell line [2]; No Wash): 93.5
MAF, Probenecid (CHO K1 cell line [2]; No Wash): 85.4
MAF, Verapamil (CHO K1 cell line [2]; No Wash): 77.6
D-values, Cyclosporin A (CHO K1 cell line [2]; Spin): 0.94
D-values, Novobiocin (CHO K1 cell line [2]; Spin): 0.97
D-values, Probenecid (CHO K1 cell line [2]; Spin): 0.9
D-values, Verapamil (CHO K1 cell line [2]; Spin): 0.76
MAF, Cyclosporin A (CHO K1 cell line [2]; Spin): 91.5
MAF, Novobiocin (CHO K1 cell line [2]; Spin): 92.4
MAF, Probenecid (CHO K1 cell line [2]; Spin): 85.0
MAF, Verapamil (CHO K1 cell line [2]; Spin): 73.0
D-values, Cyclosporin A (CHO K1 cell line [2]; Wash): 0.94
D-values, Novobiocin (CHO K1 cell line [2]; Wash): 0.94
D-values, Probenecid (CHO K1 cell line [2]; Wash): 0.87
D-values, Verapamil (CHO K1 cell line [2]; Wash): 0.76
MAF, Cyclosporin A (CHO K1 cell line [2]; Wash): 91.6
MAF, Novobiocin (CHO K1 cell line [2]; Wash): 91.3
MAF, Probenecid (CHO K1 cell line [2]; Wash): 86.2
MAF, Verapamil (CHO K1 cell line [2]; Wash): 73.5
Toxicity to the cells (MTT viability) [3]: not toxic
D-value, Cyclosporin A (HeLa cell line; Fluo-8 AM probe, No Wash): 0.12
D-value, Novobiocin (HeLa cell line; Fluo-8 AM probe, No Wash): 0.13
D-value, Probenecid (HeLa cell line; Fluo-8 AM probe, No Wash): 0.13
D-value, Verapamil (HeLa cell line; Fluo-8 AM probe, No Wash): 0.076
D-value, +4° C. (HeLa cell line; Fluo-8 AM probe, No Wash): 0.15
D-value, Cyclosporin A (HeLa cell line; Fluo-8 AM probe, Wash): 0.14
D-value, Novobiocin (HeLa cell line; Fluo-8 AM probe, Wash): 0.16
D-value, Probenecid (HeLa cell line; Fluo-8 AM probe, Wash): 0.14
D-value, Verapamil (HeLa cell line; Fluo-8 AM probe, Wash): 0.14
D-value, +4° C. (HeLa cell line; Fluo-8 AM probe, Wash): 0.14
D-value, 4° C. (HeLa cell line; kept on ice without inhibitor (Table 9)): 0.83
D-value, Cyclosporine A (HeLa cell line; [11]): 0.13
D-value, Novobiocin (HeLa cell line; [11]): 0.15
D-value, Probenecid (HeLa cell line; [11]): 0.16
D-value, Verapamil (HeLa cell line; [11]): 0.15
D-value, 4° C. (A549 cell line; A549, dye efflux, kept on ice without inhibitor (Table 9)): 0.80
D-value, Cyclosporine A (A549 cell line; [12]): 0.5
D-value, Novobiocin (A549 cell line; [12]): 0.57
D-value, Probenecid (A549 cell line; [12]): 0.33
D-value, Verapamil (A549 cell line; [12]): 0.02
D-value, Cyclosporin A (A549 cell line; [13]): 0.83
D-value, Novobiocin (A549 cell line; [13]): 0.57
D-value, Probenecid (A549 cell line; [13]): 0.33
D-value, Verapamil (A549 cell line; [13]): 0.12
D-value, +4° C. (A549 cell line; [13]): 0.77
D-value, Cyclosporin A (A549 cell line; [14]): 0.71
D-value, Novobiocin (A549 cell line; [14]): 0.46
D-value, Probenecid (A549 cell line; [14]): 0.18
D-value, Verapamil (A549 cell line; [14]): 0.11
D-value, +4° C. (A549 cell line; [14]): 0.75
